Structures can show the parent of a compound that is named as a salt.
Assays:
[1] = biological target: T1, human recombinant 5-HT2c receptor (Homo sapiens, UniProt P28335); test: FLIPR fluorescent Ca2+ mobilisation agonist assay in CHO K1 cells (Method 1); assay type: cell-based; details: for Emax: percentage of mean maximal response to 10 μM 5-HT; for EC50: agonist affinity, FLIPR
T1 construct: expressed in transfected cells; host or cells: CHO K1 (Chinese hamster ovary), stably transfected
T1 sequence (P28335 33-458): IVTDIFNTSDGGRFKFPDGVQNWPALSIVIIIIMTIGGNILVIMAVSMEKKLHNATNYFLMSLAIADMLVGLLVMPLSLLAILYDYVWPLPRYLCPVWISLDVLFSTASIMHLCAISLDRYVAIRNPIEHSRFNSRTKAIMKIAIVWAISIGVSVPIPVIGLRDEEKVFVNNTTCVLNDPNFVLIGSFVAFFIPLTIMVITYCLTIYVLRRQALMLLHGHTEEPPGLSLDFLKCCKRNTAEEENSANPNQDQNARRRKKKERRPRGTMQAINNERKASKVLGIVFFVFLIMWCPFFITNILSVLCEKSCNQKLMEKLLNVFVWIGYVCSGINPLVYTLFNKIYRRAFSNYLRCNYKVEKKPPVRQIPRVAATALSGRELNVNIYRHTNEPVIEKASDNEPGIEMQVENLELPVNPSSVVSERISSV

[2] = biological target: T1, human recombinant 5-HT2c receptor; test: 3H-meselurgine radioligand binding SPA, membranes from Swiss 3T3 cells (Method 2); details: 3H-meselurgine displacement, Cheng-Prusoff; Swiss 3T3 membranes; read-out: Binding Affinity Ki
Procedure: The compounds of the invention were evaluated for biological activity by measuring the agonist affinity (EC50) and efficacy (Emax) at the human recombinant 5-HT2c receptor expressed in CHO K1 cells, using a fluorescent based Ca^2+ mobilisation assay format compatible with FLIPR technology (Method 1). Additionally, the binding activity of a compound was determined by measuring its affinity for the human recombinant 5-HT2c receptor membranes from Swiss 3T3 cells (Method 2).
The compounds were tested for biological activity by their ability to inhibit binding of the radioligand ^3H-meselurgine at the human recombinant 5-HT2C receptor expressed in the Swiss 3T3 cells using a scintillation proximity assay (SPA) technology.
Swiss 3T3 stably transfected with the 5-HT2C receptor were cultured under standard cell culture techniques. Specifically, cells were grown in 50 mL growth medium (Dulbecco's Modified Eagle's Medium (DMEM) culture media supplemented with 10% dialysed foetal calf serum (FCS), 2 mM penicillin/streptomycin and 20 μg/mL geneticin) in 225 cm^2 flasks at 37° C. and 5% CO2. Cells were grown to 60-80% confluency, harvested using trypsin-EDTA and pelleted by centrifugation for long-term storage at −80° C.
Cell pellets were thawed on ice and resuspended in 3 mL of membrane preparation buffer (see Media and Buffers for composition) per 1 mL of packed cell. The suspension was homogenised on ice for several 5 s intervals using a hand-held homogeniser. The homogenate was then centrifuged at 1,000 rpm for 5 min at 4° C.
The supernatants were then collected and retained. Initial cell & nuclei pellets (P1) were subsequently rehomogenised and centrifuged using the conditions cited above, and the supernatants collected and pooled with those retained from the first spin.
The pooled supernatants were centrifuged at 19,500 rpm for 45 min at 4° C., and the supernatants discarded. The pellets (P2) were then resuspended in 3 mL of membrane preparation buffer per 1 mL of the original packed cell volume. Protein concentrations were subsequently measured and the membrane suspension was finally frozen in aliquots of set volume and stored at −80° C. prior to use in assays.
For each batch of membrane used, optimal concentrations of Polylysine YSi SPA beads and membrane were determined. The assay free radioligand concentration was expressed as a percentage of the total free radioligand concentration to give an estimate of the radioligand depletion.
The affinity of ^3H-meselurgine for the human recombinant 5-HT2c receptor was determined for each membrane batch at the selected protein and bead concentrations. […] The mean KD for ^3H-meselurgine at a batch of membranes was determined from data from a minimum of three separate assays.
The required amount of membrane, was thawed on ice and added to a pre-determined volume of bead suspension in 50 mM HEPES buffer, pH 7.4. The beads were then pre-coupled by incubating the predetermined protein quantity per mg of bead on a roller 4° C. for 1 h. Subsequently, the bead/membrane complex was spun down at 1000 rpm for 5 min. The resulting pellet was resuspended in assay buffer at the specific concentration required for the final assay.
An aliquot of [^3H]-meselurgine stock was diluted in binding assay buffer to give a pre-determined final assay concentration less than the equilibrium dissociation constant (KD) value.
All test compounds were prepared at a concentration of 4 mM in 100% dimethyl sulphoxide (DMSO) from dry samples.
The same volume of assay buffer was added to specific wells of the plate to enable subsequent measurement of total radioligand binding. Furthermore, 5 μL of Mianserin at 25 μM (2.5 μM final assay concentration was subsequently added to pre-determined wells to determine non-specific binding (NSB).

[3] = anaesthetized dog; cited from earlier work
[4] = conscious rats and monkeys; i.v., i.p., s.c. or i.m. administration; cited from earlier work
[5] = cited from earlier work; for bladder capacity: anaesthetized guinea-pig cystometry; for urethral EMG activity: anaesthetized guinea-pig urethral EMG model
[6] = man; cited from earlier work

Compound	Emax ([1]; CHO-K1, efficacy)	EC50 [1]	Ki [2]	further results
OC1CCN(c2nc(Cc3ccccc3)nc3c2CCNCC3)C1 (centres unmarked) [Example 44, 1-(2-benzyl-6,7,8,9-tetrahydro-5H-pyrimido[4,5-d]azepin-4-yl)pyrrolidin-3-ol hydrochloride]	75.5%	136 nM	139 nM	
C[C@H]1COCCN1c1nc(Cc2ccccc2)nc2c1CCNCC2 [Example 45, 2-benzyl-4-[(3S)-3-methylmorpholin-4-yl]-6,7,8,9-tetrahydro-5H-pyrimido[4,5-d]azepine hydrochloride]	88.4%	69.5 nM	28.4 nM	
CN(C)c1ncc2c(n1)CCNCC2 [Example 50, N,N-dimethyl-6,7,8,9-tetrahydro-5H-pyrimido[4,5-d]azepin-2-amine hydrochloride]	100%	481 nM	552 nM	
CCc1nc(Cc2ccccc2)nc2c1CCNCC2 [Example 52, 2-Benzyl-4-ethyl-6,7,8,9-tetrahydro-5H-pyrimido[4,5-d]azepine]	71.6%	314 nM	142 nM	
c1ccc(Cc2nc3c(c(C4CC4)n2)CCNCC3)cc1 [Example 53, 2-Benzyl-4-cyclopropyl-6,7,8,9-tetrahydro-5H-pyrimido[4,5-d]azepine]	49.6%	293 nM	105 nM	
c1ccc(Cc2nc3c(c(-n4ccnc4)n2)CCNCC3)cc1 [Example 55, 2-Benzyl-4-imidazol-1-yl-6,7,8,9-tetrahydro-5H-pyrimido[4,5-d]azepine]	72.6%	263 nM	380 nM	
Clc1cccc(Cc2ncc3c(n2)CCNCC3)c1 [Example 56, 2-(3-Chlorobenzyl)-6,7,8,9-tetrahydro-5H-pyrimido[4,5-d]azepine]		180 nM	83.9 nM	Emax ([1]; efficacy): 55.9%
CCOc1nc(C(C)c2ccccc2)nc2c1CCNCC2 (centres unmarked) [Example 59, 4-Ethoxy-2-(1-phenylethyl)-6,7,8,9-tetrahydro-5H-pyrimido[4,5-d]azepine]	33.1%	107 nM	49.3 nM	
Fc1ccc(Cc2ncc3c(n2)CCNCC3)cc1 [Example 62, 2-(4-Fluorobenzyl)-6,7,8,9-tetrahydro-5H-pyrimido[4,5-d]azepine]	59.6%	309 nM	471 nM	
FC(F)(F)c1cccc(Cc2ncc3c(n2)CCNCC3)c1 [Example 63, 2-[3-(Trifluoromethyl)benzyl]-6,7,8,9-tetrahydro-5H-pyrimido[4,5-d]azepine]	44.1%	298 nM	308 nM	
Cc1cccc(Cc2ncc3c(n2)CCNCC3)c1 [Example 65, 2-(3-Methylbenzyl)-6,7,8,9-tetrahydro-5H-pyrimido[4,5-d]azepine]	83.9%	211 nM	244 nM	
Cc1ccccc1Cc1ncc2c(n1)CCNCC2 [Example 66, 2-(2-Methylbenzyl)-6,7,8,9-tetrahydro-5H-pyrimido[4,5-d]azepine]	70.5%	332 nM	304 nM	
Cc1nc(Cc2ccccc2)nc2c1CCNCC2 [Example 68, 2-Benzyl-4-methyl-6,7,8,9-tetrahydro-5H-pyrimido[4,5-d]azepine]	71.4%	179 nM	421 nM	
CCCCc1nc(Cc2ccccc2)nc2c1CCNCC2 [Example 69, 2-Benzyl-4-butyl-6,7,8,9-tetrahydro-5H-pyrimido[4,5-d]azepine]	77.1%	274 nM	153 nM	
COc1nc(C(F)(F)c2ccccc2)nc2c1CCNCC2 [Example 72, 2-(Difluoro-phenyl-methyl)-4-methoxy-6,7,8,9-tetrahydro-5H-pyrimido[4,5-d]azepine]	41.1%	80 nM	77.7 nM	
COc1nc(C(F)(F)c2ccccc2)nc2c1CCNCC2 [Example 72A, 2-(Difluoro-phenyl-methyl)-4-methoxy-6,7,8,9-tetrahydro-5H-pyrimido[4,5-d]azepine hydrochloride]		35.6 nM	15 nM	Emax ([1]; efficacy): 31.9%
CN(CC1CC1)c1nc(N2CCSCC2)nc2c1CCNCC2 [Example 90, N-(cyclopropylmethyl)-N-methyl-2-thiomorpholin-4-yl-6,7,8,9-tetrahydro-5H-pyrimido[4,5-d]azepin-4-amine]	87.3%	75.9 nM	24.7 nM	
CCNc1nc(N(C)CC)nc2c1CCNCC2 [Example 98, N-2,N-4-diethyl-N-2-methyl-6,7,8,9-tetra-hydro-5H-pyrimido[4,5-d]-azepin-4-amine]	61.7%	77 nM	16.3 nM	
CN(C)c1nc(N(C)CC2CC2)nc2c1CCNCC2 [Example 104, N-2-(cyclopropylmethyl)-N-2,N-4,N-4-trimethyl-6,7,8,9-tetrahydro-5H-pyrimido[4,5-d]azepine-2,4-diamine]	69%	282 nM	90.3 nM	
C1CCN(c2nc3c(c(N4CCSCC4)n2)CCNCC3)C1 [Example 106, 2-pyrrolodin-1-yl-4-thiomorpholin-4-yl-6,7,8,9-tetrahydro-5H-pyrimido[4,5-d]azepine]	78.4%	100 nM	41.6 nM	
C[C@H](N)Cn1ccc2cc(F)c(Cl)cc21 [Ro-60-0175]				urethral pressure [3]: increased urethral pressure in a dose-dependent manner; penile erection [4]: enhance penile erection; bladder capacity [5]: doses related increases; urethral EMG activity [5]: doses related increases
CCc1cc2c(ccc3cnn(C[C@H](C)N)c32)o1 [YM348]				bladder capacity [5]: doses related increases; urethral EMG activity [5]: doses related increases
Clc1cccc(N2CCNCC2)c1 [m-CPP]				penile erection [4]: enhance penile erection; proerectile activity [6]: associated with proerectile activity; bladder capacity [5]: doses related increases; urethral EMG activity [5]: doses related increases
O=c1n(CCCN2CCN(c3cccc(Cl)c3)CC2)nc2ccccn12 [trazodone]				proerectile activity [6]: associated with proerectile activity
